Assay results from ChEMBL document CHEMBL1201862, “PubChem BioAssay data set” (2004).
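96-well plates; 48 h exposure; 5 concentrations. Endpoints by linear interpolation between flanking doses. Not reached: highest tested concentration assigned. GI50: concentration for 50% inhibition of growth.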 The source made the active and inactive calls. Cut-off read from the data, not from the text of the source: active = GI50 up to about 1.1 µM and inactive = higher.

Legend:
Assay in all cases: NCI tumour cell line growth inhibition, 48 h
UACC-62 = system: UACC-62
HCC 2998 = system: HCC 2998
NCI-H23 = system: NCI-H23
XF498 = system: XF498
OVCAR-3 = system: OVCAR-3
ACHN = system: ACHN
KM-20L2 = system: KM-20L2
UACC-257 = system: UACC-257
COLO 205 = system: COLO 205
LXFL 529 = system: LXFL 529
SW-620 = system: SW-620
OVCAR-4 = system: OVCAR-4
M19-MEL = system: M19-MEL
OVCAR-5 = system: OVCAR-5
RPMI-8226 = system: RPMI-8226
MCF7 = system: MCF7
BT-549 = system: BT-549
T47D = system: T47D
MDA-N = system: MDA-N

Measured: GI50

CC(=O)NC1=C(NCC(C)(C)C)C(=O)c2ccccc2C1=O
inactive: UACC-62 39 µM | HCC 2998 > 100 µM | NCI-H23 56.5 µM | XF498 25.8 µM | OVCAR-3 55.2 µM | ACHN 26.9 µM | KM-20L2 57.8 µM | UACC-257 50.2 µM | COLO 205 39.3 µM | LXFL 529 > 100 µM | SW-620 66.5 µM | OVCAR-4 > 100 µM | M19-MEL 21.1 µM

COc1ccc(NC(=O)CC(=O)n2nc(C)c(/N=N/c3ccccc3C(=O)O)c2C)cc1
inactive: UACC-62 > 100 µM | HCC 2998 > 100 µM | NCI-H23 > 100 µM | XF498 > 100 µM | OVCAR-5 > 100 µM | OVCAR-3 > 100 µM | KM-20L2 > 100 µM | UACC-257 > 100 µM | COLO 205 > 100 µM | LXFL 529 > 100 µM | RPMI-8226 > 100 µM | SW-620 > 100 µM | OVCAR-4 > 100 µM | M19-MEL > 100 µM

Cc1c(CNc2ccc(C(=O)NC(CCCNC(=O)c3ccccc3C(=O)O)C(=O)O)cc2)cnc2nc(N)nc(N)c12 (stereo unspecified)
inactive: OVCAR-4 1.55 µM
active: UACC-62 0.000396 µM | HCC 2998 0.000899 µM | NCI-H23 0.00151 µM | MCF7 0.0007 µM | BT-549 1.11 µM | OVCAR-5 0.199 µM | OVCAR-3 0.0168 µM | ACHN 0.000393 µM | UACC-257 0.785 µM | COLO 205 0.00671 µM | RPMI-8226 0.000834 µM | SW-620 < 0.0001 µM | T47D 0.0615 µM | MDA-N 0.001 µM

CCCCN=C(OC1C=CCCC1)SC (stereo unspecified)
inactive: UACC-62 > 100 µM | HCC 2998 > 100 µM | NCI-H23 > 100 µM | MCF7 > 100 µM | BT-549 > 100 µM | OVCAR-5 > 100 µM | OVCAR-3 > 100 µM | ACHN > 100 µM | UACC-257 > 100 µM | COLO 205 > 100 µM | RPMI-8226 > 100 µM | SW-620 > 100 µM | T47D > 100 µM | OVCAR-4 > 100 µM | MDA-N > 100 µM

CC1CCCCc2nc3c(c(=O)n21)CCCC3 (stereo unspecified)
inactive: UACC-62 > 100 µM | HCC 2998 > 100 µM | NCI-H23 > 100 µM | XF498 > 100 µM | OVCAR-5 > 100 µM | OVCAR-3 > 100 µM | ACHN > 100 µM | KM-20L2 > 100 µM | UACC-257 > 100 µM | COLO 205 > 100 µM | LXFL 529 > 100 µM | SW-620 > 100 µM | OVCAR-4 > 100 µM | M19-MEL > 100 µM

CCOP(=O)(CCCC(O)CNc1nc(N)nc(Cl)c1/N=N/c1ccc(Cl)cc1)OCC (stereo unspecified)
inactive: UACC-62 5.13 µM | HCC 2998 15.4 µM | NCI-H23 12.1 µM | MCF7 11.9 µM | BT-549 6.28 µM | OVCAR-5 10.9 µM | OVCAR-3 5.73 µM | ACHN 4.05 µM | UACC-257 5.38 µM | COLO 205 6.64 µM | RPMI-8226 2.82 µM | SW-620 12.3 µM | T47D 5.09 µM | OVCAR-4 4.45 µM | MDA-N 5.82 µM

N=C(N)NS(=O)(=O)c1ccc(Nc2c3ccccc3nc3c(C(=O)NCCO)cccc23)cc1
active: UACC-62 0.167 µM | HCC 2998 0.19 µM | NCI-H23 0.167 µM | MCF7 0.0282 µM | BT-549 0.143 µM | OVCAR-5 0.244 µM | OVCAR-3 0.142 µM | ACHN 0.219 µM | UACC-257 0.243 µM | COLO 205 0.16 µM | RPMI-8226 0.162 µM | SW-620 0.188 µM | T47D 0.148 µM | OVCAR-4 0.261 µM | MDA-N 0.267 µM

CN(C)CCOc1ccc2[nH]c(C(=O)N3CC(CCl)c4c3cc(N)c3ccccc43)cc2c1 (stereo unspecified)
active: UACC-62 < 0.01 µM | HCC 2998 < 0.01 µM | NCI-H23 < 0.01 µM | MCF7 < 0.01 µM | BT-549 < 0.01 µM | OVCAR-5 < 0.01 µM | OVCAR-3 < 0.01 µM | ACHN < 0.01 µM | UACC-257 < 0.01 µM | COLO 205 < 0.01 µM | RPMI-8226 < 0.01 µM | SW-620 < 0.01 µM | T47D < 0.01 µM | OVCAR-4 < 0.01 µM | MDA-N < 0.01 µM

CC(=O)c1cc(I)c(O)c2ncccc12
inactive: UACC-62 3.3 µM | HCC 2998 8.17 µM | NCI-H23 3.13 µM | MCF7 4.73 µM | BT-549 5.07 µM | OVCAR-5 > 10 µM | OVCAR-3 3.21 µM | ACHN 2.43 µM | UACC-257 2.66 µM | COLO 205 3.11 µM | RPMI-8226 2.67 µM | SW-620 4.17 µM | T47D 5.74 µM | OVCAR-4 2.94 µM | MDA-N 5.02 µM
